Results: ChEMBL document CHEMBL1764967, “Introduction of aromatic group on 4'-OH of α-GalCer manipulated NKT cell cytokine production” (Bioorg Med Chem, 2011)
Activity calls are given as the source filed them.

Legend:
Mus musculus [1] = assay: Immunostimulatory activity in C57BL/6 mouse assessed as maximum INF-gamma level in serum at 10 ug/ml, iv after 12 hrs by ELISA; assay type: functional, organism-based
Splenocyte [2] = assay: Immunostimulatory activity in C57BL/6 mouse Splenocytes assessed as release of IL4 at 1000 ng/ml after 72 hrs by ELISA; assay type: functional, cell-based
Mus musculus [3] = organism: Mus musculus; assay: Immunostimulatory activity in mouse N38.2H4 hybridoma cells expressing TCR assessed as IL2 level after 24 to 48 hrs by ELISA; assay type: functional
Mus musculus [4] = assay: Immunostimulatory activity in C57BL/6 mouse assessed as INF-gamma level in serum at 10 ug/ml, iv after 2 to 24 hrs by ELISA; assay type: functional, organism-based; settings: TDE = time-dependent effect
Mus musculus [5] = assay: Immunostimulatory activity in C57BL/6 mouse assessed as IL4 level in serum at 10 ug/ml, iv after 2 to 24 hrs by ELISA; assay type: functional, organism-based; settings: TDE = time-dependent effect
Mus musculus [6] = organism: Mus musculus; assay: Immunostimulatory activity in mouse DN3A4-1.2 hybridoma cells expressing TCR assessed as IL2 level after 24 to 48 hrs by ELISA; assay type: functional
Mus musculus [7] = assay: Immunostimulatory activity in C57BL/6 mouse assessed as maximum IL4 level in serum at 10 ug/ml, iv after 4 hrs by ELISA; assay type: functional, organism-based
Mus musculus [8] = organism: Mus musculus; assay: Immunostimulatory activity in mouse DN3A4-1.4 hybridoma cells expressing TCR assessed as IL2 level after 24 to 48 hrs by ELISA; assay type: functional
Mus musculus [9] = organism: Mus musculus; assay: Immunostimulatory activity in mouse DN3A4-1.2 cells expressing TCR assessed as IL2 level after 24 hrs by ELISA in presence of mouse CD1d protein; assay type: functional, cell-based
N38.2H4 = assay: Immunostimulatory activity in mouse N38.2H4 cells expressing TCR assessed as IL2 level after 24 by ELISA in presence of mouse CD1d protein; assay type: functional, cell-based
Splenocyte [10] = assay: Immunostimulatory activity in C57BL/6 mouse Splenocytes assessed as release of IL4 after 72 hrs by ELISA; assay type: functional, cell-based
Mus musculus [11] = assay: Immunostimulatory activity in C57BL/6 mouse assessed as maximum INF-gamma level in serum at 10 ug/ml, iv after 2 hrs by ELISA; assay type: functional, organism-based
Mus musculus [12] = assay: Immunostimulatory activity in C57BL/6 mouse assessed as maximum IL4 level in serum at 10 ug/ml, iv after 2 hrs by ELISA; assay type: functional, organism-based

Measured: Activity

CCCCCCCCCCCCCCCCCCCCCCCCCC(=O)N[C@@H](CO[C@H]1O[C@H](CO)[C@H](OCCc2ccccc2)[C@H](O)[C@H]1O)[C@H](O)[C@H](O)CCCCCCCCCCCCCC
active: Mus musculus [1] | Splenocyte [2] | Mus musculus [3] | Mus musculus [4] tde | Mus musculus [5] tde | Mus musculus [6] | Mus musculus [7] | Mus musculus [8]

CCCCCCCCCCCCCCCCCCCCCCCCCC(=O)N[C@@H](CO[C@H]1O[C@H](CO)[C@H](OC(=O)c2ccccc2)[C@H](O)[C@H]1O)[C@H](O)[C@H](O)CCCCCCCCCCCCCC
active: Splenocyte [2] | Mus musculus [9] | Mus musculus [3] | Mus musculus [4] tde | N38.2H4 | Mus musculus [5] tde | Mus musculus [6] | Mus musculus [7] | Mus musculus [8]

CCCCCCCCCCCCCCCCCCCCCCCCCC(=O)N[C@@H](CO[C@H]1O[C@H](CO)[C@H](OCCCc2ccccc2)[C@H](O)[C@H]1O)[C@H](O)[C@H](O)CCCCCCCCCCCCCC
active: Mus musculus [1] | Splenocyte [10] | Mus musculus [11] | Mus musculus [12] | Mus musculus [9] | Mus musculus [3] | Mus musculus [4] tde | N38.2H4 | Mus musculus [5] tde | Mus musculus [6] | Mus musculus [8]

CCCCCCCCCCCCCCCCCCCCCCCCCC(=O)N[C@@H](CO[C@H]1O[C@H](CO)[C@H](O)[C@H](O)[C@H]1O)[C@H](O)[C@H](O)CCCCCCCCCCCCCC
active: Mus musculus [11] | Mus musculus [12] | Mus musculus [9] | Mus musculus [4] tde | N38.2H4 | Mus musculus [5] tde
